What was measured:
Recombinant AChE = Recombinant AChE (Homo sapiens, UniProt P22303); test: biochemical; settings: SPR, 25°C, 1:1 Langmuir binding model; read-out: AChE Affinity Kd
Method: The experiments for surface plasmon resonance (SPR) interaction were conducted at 25°C using the Biacore T200 system (GE Healthcare, Sweden). Recombinant AChE diluted in sodium acetate buffer (100 mM, pH 4.5) was used as the stock for the following experiments. CM5 sensor chips were coupled with AChE using an amine coupling kit (GE Healthcare, Buckinghamshire, UK). Thereafter, different concentrations of compounds were injected as analytes using PBS-P (10mM phosphate buffer with 2.7 mM KCl and 137 mM NaCl, 0.05% polysorbate 20, […]) as running buffer. For binding assays, the analytes were introduced with a 60 s contact time followed by a 60 s dissociation time at a flow rate of 45 μl/min. The surface was regenerated with 10 mM glycine (pH 3.0) for 30 s. The affinity constants were calculated using the 1:1 Langmuir binding model of Biacore evaluation software (T200 Version 1.0).

NF-κB = NF-κB luciferase reporter assay; type: cell-based; settings: Homo sapiens; SW480 cells stably transfected with NF-κB luciferase reporter gene, induced by LPS; mean ± SD (n = 3); read-out: NF-κB Activation IC50
Method: SW480-NF-κB cells were seeded at a density of 5 × 10^4 cells/well in 24-well plates and incubated with circumdatins with or without LPS stimulation for 6 h. The κB-dependent luciferase reporter activity in cell extracts was monitored using an automated microplate reader.

[1] = molecular target: T1, acetylcholinesterase (AChE) from Electrophorus electrics (Electric eel) (Electrophorus electricus, UniProt O42275); test: biochemical; settings: modified Ellman's colorimetric method; mean ± SD (n = 3)
T1 construct: purchased Sigma Chemical Co. (St Louis, MO, USA)
T1 sequence (O42275 24-633): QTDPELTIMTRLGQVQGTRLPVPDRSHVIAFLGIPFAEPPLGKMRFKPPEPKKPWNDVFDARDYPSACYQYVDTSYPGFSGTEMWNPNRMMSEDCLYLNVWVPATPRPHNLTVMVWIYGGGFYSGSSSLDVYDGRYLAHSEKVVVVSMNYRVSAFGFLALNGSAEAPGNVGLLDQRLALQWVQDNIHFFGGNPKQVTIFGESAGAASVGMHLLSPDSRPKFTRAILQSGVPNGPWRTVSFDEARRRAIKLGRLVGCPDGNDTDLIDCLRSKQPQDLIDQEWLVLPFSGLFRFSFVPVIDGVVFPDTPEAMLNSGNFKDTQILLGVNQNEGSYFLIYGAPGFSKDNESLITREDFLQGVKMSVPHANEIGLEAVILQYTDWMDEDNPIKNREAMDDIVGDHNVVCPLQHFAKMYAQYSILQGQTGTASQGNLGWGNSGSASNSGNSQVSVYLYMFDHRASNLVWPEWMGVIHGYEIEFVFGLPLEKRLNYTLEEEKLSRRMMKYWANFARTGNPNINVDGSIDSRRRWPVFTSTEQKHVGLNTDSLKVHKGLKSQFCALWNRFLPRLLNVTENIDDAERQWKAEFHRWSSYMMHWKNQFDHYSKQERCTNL
From the text: Dulbecco's modified Eagle medium (DMEM), α-minimum essential medium (α-MEM) and fetal bovine serum (FBS) were provided by Hyclone (Waltham, USA). 3-(4,5-Dimethylthiazol-2-yl)-2,5-diphenyltetrazolium bromide (MTT), acetylcholinesterase (AChE) from Electrophorus electrics (Electric eel) and lipopolysaccharide (LPS) (Escherichia coli 055: B5) were provided by Sigma Chemical Co. (St Louis, MO, USA). Enzyme-linked immunosorbent assay (ELISA) kits for IL-1β and TNF-α and Griess reagent for nitric oxide (NO) assay kit were provided by ExCell Bio (Shanghai, China). Antibodies for TLR4, MyD88, JNK, p-JNK, p38, p-p38, ERK, p-ERK, IκB, p-IκB, IKK, p-IKK, NF-κB, STAT3、p-STAT3、Jak2, p-Jak2, GAPDH and Histone H3 were purchased from Cell Signaling Technology (Danvers, USA). Antibodies for iNOS and COX-2 were provided by Abcam (Cambridge, UK).
AChE activities in vitro and in vivo were assessed by a modified Ellman's spectrophotometric method ([Szwajgier, 2015]). Briefly, AChE (80 μl) in phosphate buffer (Na2HPO4/NaH2PO4, pH 8.0) and compound (20 μl) diluted in same phosphate buffer were added to 96 microplates as the reaction mixture. The mixture was incubated at 37°C for 30 min before addition of 10 μl 5,5′-dithiobis (2-nitrobenzoic acid) (DTNB) (3 mM) and 10 μl acetylthiocholine iodide (ATCI) (15 mM). After incubation for 20 min, the absorbance was detected at 412 nm using a microplate spectrophotometer (Thermo Scientifics, USA). […] The inhibitory rate of AChE was calculated, and the IC50 values were calculated by GraphPad Prism® 5.0 software (GraphPad Inc., San Diego, USA).

BV-2 cells = test: LPS-induced NO production in BV-2 cells (Griess method); type: cell-based, murine; settings: 1 μg/ml LPS, 24 h
Method: BV-2 cells (murine microglia cell line) was obtained from Peking Union Medical College, Cell Bank (Beijing, China) and maintained in DMEM containing 10% FBS. Cells were grown in a humidified atmosphere of 5% CO2 incubator at 37°C.
BV2 cells were seeded and incubated overnight, and followed by treatment with different doses of circumdatins for indicated period with or without LPS (1 μg/ml) stimulation. The cells without circumdatins and LPS treatment were used as the control group.
The NO levels in culture media was determined using a Griess method. Cells were treated with different concentrations of circumdatins in the presence or absence of LPS for 24 h. After that, the supernatant fraction of the culture media was collected and mixed with the same volume of Griess reagent (1% sulfanilamide/0.1% naphthyl ethylene diamine dihydrochloride/2% H3PO4). Then, the absorbance was measured at 540 nm using a microplate spectrophotometer (Thermo Scientifics, USA). The concentration of nitrite was calculated from a calibration curve obtained from standards sodium nitrite solutions.

Recombinant AChE, sequence (P22303 32-614): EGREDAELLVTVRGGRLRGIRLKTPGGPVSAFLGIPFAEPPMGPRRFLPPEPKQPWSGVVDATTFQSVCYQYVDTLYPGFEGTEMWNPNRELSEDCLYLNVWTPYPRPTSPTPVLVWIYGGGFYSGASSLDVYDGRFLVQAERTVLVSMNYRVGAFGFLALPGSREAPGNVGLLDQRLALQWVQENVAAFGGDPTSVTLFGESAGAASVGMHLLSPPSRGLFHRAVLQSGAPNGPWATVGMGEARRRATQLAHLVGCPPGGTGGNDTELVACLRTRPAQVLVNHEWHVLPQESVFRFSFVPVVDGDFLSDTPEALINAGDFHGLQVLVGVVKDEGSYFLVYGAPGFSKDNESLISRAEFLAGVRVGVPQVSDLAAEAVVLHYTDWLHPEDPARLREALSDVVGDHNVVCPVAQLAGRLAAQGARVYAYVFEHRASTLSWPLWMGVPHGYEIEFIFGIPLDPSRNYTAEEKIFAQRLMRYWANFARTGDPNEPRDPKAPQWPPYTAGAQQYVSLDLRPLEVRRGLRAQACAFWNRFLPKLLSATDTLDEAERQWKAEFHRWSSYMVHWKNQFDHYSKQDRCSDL

Row | SMILES | Kd (Recombinant AChE) [µM] | IC50 (NF-κB) [µM] | IC50 [1] [µM] | LPS-induced NO production (BV-2 cells)
1 | C[C@@H]1NC(=O)c2cc(O)c(O)cc2-n2c1nc1ccccc1c2=O [2-hydroxycircumdatin C] | 3.6 | 16.5 ± 1.9 | 5.6 ± 0.9 | –
2 | C[C@@H]1NC(=O)c2cc(O)ccc2-n2c1nc1ccccc1c2=O [circumdatin C] | 85 | 15.6 ± 2.3 | – | decreased NO production only in high dose
3 | COc1ccc2nc3n(c(=O)c2c1)-c1ccccc1C(=O)N1CCC[C@@H]31 [circumdatin H] | 95 | 33.3 ± 1.4 | 98 ± 5.7 | decreased NO production only in high dose
4 | C[C@@H]1NC(=O)c2ccccc2-n2c1nc1ccccc1c2=O [circumdatin F] | 240 | 11.8 ± 0.9 | 10 ± 1.9 | decreased NO production only in high dose
5 | C[C@@H]1NC(=O)c2cc(O)ccc2-n2c1nc1c(O)cccc1c2=O [circumdatin I] | 65 | 18.6 ± 1.9 | 11.6 ± 2.6 | decreased NO production only in high dose
6 | C[C@@H]1NC(=O)c2ccccc2-n2c1nc1c(O)cccc1c2=O [circumdatin G] | 120 | 18.9 ± 2.1 | 15.8 ± 2 | significant reduction of NO levels

Source: article PMC7261837, “Circumdatin D Exerts Neuroprotective Effects by Attenuating LPS-Induced Pro-Inflammatory Responses and Downregulating Acetylcholinesterase Activity In Vitro and In Vivo” (Frontiers in Pharmacology, 2020)
